# From publication PMC9822352, “Design, Synthesis and Evaluation of New Multifunctional Benzothiazoles as Photoprotective, Antioxidant and Antiproliferative Agents” (Molecules, 2022)
# Columns and labels:
# [1] = UV spectra in solution (MeOH-DMSO): λmax and molar extinction coefficient; assay type: physicochemical; conditions: for ε (molar extinction coefficient): at λmax, Lambert-Beer equation, in M-1 cm-1 (unit assumed); for λmax: solution in MeOH-DMSO, 290–400 nm
# Description: We next investigated the protective potential against UV radiation of each compound. Specifically, in vitro tests were conducted to determine the parameters related to absorption in the UV spectrum and those fundamental to the relative evaluation of the filtering potential and thus candidature as possible UV sunscreen ingredients of the candidates under examination, including λ critical and SPF (sun protection factor). Since the SPF is correlated to the UV quantitative absorption of the substances, the wavelength of maximum absorption (λmax) and the molar extinction coefficient (ε) of the derivatives in solution (MeOH-DMSO) were evaluated (Figures S1 and S2, Supplementary Materials). The UV spectra of the compounds BZTidr1–6 and BZTcin1–5 were recorded in the UVA-UVB range (290–400 nm) to evaluate their profile and compare it to that of the PBSA, a commercial UVB filter that has a λmax of 302 nm. After this peak, the absorbance of PBSA drops, reaching almost zero in the 325 nm range, and thus not providing absorption in the UVA region.
# Once the λmax of each derivative was established, the molar extinction coefficient ε was calculated by applying the Lambert-Beer equation (Table S1, Supplementary Materials): the higher this value, the greater the ability of the compound under examination to absorb UV radiation. […] The excellent values of BZTidr1, BZTidr2 and BZTidr3 are ascribed to the aforementioned hyperchromic shift. In regard to the BZTcin1–5 series, the molar extinction coefficients calculated were very high, and the best values were those of BZTcin1, BZTcin2 and BZTcin3, also attributable to the hyperchromic shift of the absorption spectra. For both series, the excellent absorption capacity of ultraviolet radiation can be traced back to the high π-type conjugation that characterizes them.
# [2] = Photostability study of 3% formulation (post-irradiation filtering parameters); conditions: 3% in formulation, post irradiation
# Excerpt: To outline the efficacy and safety profile of a sunscreen formulation, it is essential to provide data relating to photostability. It is possible to provide photodegradation data by recording, pre- and post-irradiation, the transmittance of PMMA plates with finger-coat formulations subjected to a dose of UVA capable of causing erythema, according to the criteria of Garoli et al.. By means of Equations (2) and (3) it was possible to evaluate the residual percentage of SPF in vitro and of UVA-PF for all the prepared formulations. Of greatest interest are the values obtained for the derivatives BZTcin2 and BZTcin4.
# To determine the photostability, the previously reported method was adopted, which consists in preparing each plate as mentioned above and subjecting it to solar irradiation quantified as the minimum dose of UVA equivalent to an effective radiant exposure of erythema. The protocol stipulates that, before and after exposure to sunlight, the transmission of the sun protection layer in the range of 290–400 nm is recorded.
# Using Equations (2) and (3) below, the residual percentage of SPF in vitro (% SPFeff.) and UVA-PF (% UVA-PFeff.) have been obtained, which, if greater than or equal to 80, can classify a filter as photostable. %SPFeff. = in vitro SPFafter/in vitro SPFbefore × 100(2) %UVA − PFeff. = UVA − PFafter/UVA − PFbefore × 100(3)
# [3] = FRAP (Ferric Reducing Antioxidant Power) assay; conditions: Trolox standard, 37 °C 10 min, 593 nm; mean ± SEM
# Excerpt: The FRAP (Ferric Reducing Antioxidant Power) test allows the measurement of the ability of antioxidants to reduce ferric ion to ferrous. This method represents one of the simplest, quickest and least expensive methods for the determination of reducing properties on oxidized species in vitro.
# The FRAP test (Ferric Reducing Antioxidant Power) is based on a colorimetric reaction and evaluates the ability of a sample of reducing ferric ions to ferrous ion while complexed with TPTZ (2,4,6-trispyridil-s-triazine). The FRAP solution was prepared from 0.1 M acetate buffer (pH 3.6), 10 mmol/L of TPTZ in 40 mM HCl, and 20 mM solution of FeCl3, with a 10:1:1 ratio, as described. Then, 1.9 mL of this solution was incubated with 0.1 mL of the sample solution at 37 °C for 10 min. The absorbance was read with a UV-Vis spectrophotometer at a 593 nm wavelength, relative to the maximum peak of absorbance of Fe^2+-TPTZ complex. Trolox® was used as a standard and the results are expressed as µmolTE/g.
# [4] = In vitro filtering parameters of O/W sunscreen formulation containing 3% compound (modified Diffey-Robson, PMMA plates); conditions: 3% in formulation, before irradiation
# Excerpt: All synthesized compounds were formulated at 3% and their photoprotective efficacy, determined by spectrophotometric measurements using the modified Diffey-Robson method, was compared with that of the lead compound PBSA (used at 3% in the same formulation) and using the base without active as a control (Table 2).
# The synthesized compounds were incorporated at a concentration of 3% in a typical oil-in-water sunscreen formulation, to evaluate the filtering parameters, and have the following ingredient composition:
# INCI (International Nomenclature Cosmetic Ingredients): aqua, glycerin, Euxyl PE 9010, xanthan gum, Tribehenin PEG-20 Esters, cetearyl alcohol, dicaprylyl carbonate, PPG-26-Buteth-26 (and) PEG-40 Hydrogenated Castor Oil (and) water, C12-C15 Alkyl Benzoate, and Sodium hydroxide (sol. 10%).
# As previously reported the protocol indicates to spread 32.5 mg of each formulation on 25 cm^2 PMMA plates with the fingers. Each formulation was tested in triplicate, and five measurements were recorded for each dish, following a 15–30 min incubation in the dark at room temperature. UV transmittance data was recorded using a UV-VIS spectrophotometer in the range 290–400 nm. The blank plate, SPF, UVA-PF and critical wavelength were obtained by SPF Calculator software (version 2.1), Shimadzu, Milan, Italy).
# [5] = DPPH radical scavenging test; conditions: compound at 1 mg/mL, 30 min, 517 nm; mean ± SEM
# Description: The DPPH assay is widely used, and the simplest and fastest in vitro method for evaluating the antioxidant power of extracts or isolated compounds; it is based on the depletion of the 2,2-diphenyl-1-picrylhydrazyl radical (DPPH˙) by an antioxidant molecule with scavenger activity. This is an extremely sensitive test that can detect the activity of active ingredients present in very low concentrations.
# The procedure used was adapted from Wang et al.. Briefly, 0.750 mL of a methanolic solution of each tested compound was treated with 1.5 mL of DPPH solution (0.004%) in MeOH. Samples were stored in the dark at room temperature for 30 min, and the absorbance value was read with a spectrophotometer at 517 nm, which is the maximum peak of absorbance relative to the DPPH radical absorption spectra. The values obtained were fitted into Equation (1) and converted to inhibition percentage (%) of the radical:DPPH inhibition percentage (%) = 100 × [1 − A1/A0](1) where A1 and A0 were, respectively, the absorbance recorded with and without the sample, which are directly proportional to DPPH residual concentration in the sample and DPPH concentration in the control (0.750 of MeOH and 1.5 mL of DPPH solution). […] A linear regression was performed to calculate the sample concentration able to eliminate 50% of DPPH free radicals.
# melanoma Colo-38 cells = experiment: Cell growth inhibition assay, Colo-38; assay type: cell-based, human; conditions: Homo sapiens; 24 h incubation, cell count
# Description: (§1) All synthesized compounds were tested in order to evaluate their in vitro antiproliferative activity. The human melanoma Colo-38 cell line was selected as a tumor skin model, while the immortalized human HaCaT keratinocytes were chosen as a control for the evaluation of the cytotoxicity towards non-cancerous cells and of the selectivity towards tumor cell lines. […] The selectivity index (SI) was also calculated and is the ratio between the IC50 of a given compound towards the non-cancerous cell line and the IC50 of the same compound towards the tumor cell line.
# (§2) Cell growth inhibition assays were carried out using human melanoma Colo-38 cells and skin HaCat keratinocytes cells. Human melanoma Colo-38 cells were kindly provided by Dr. Patrizio Giacomini (Laboratory of Immunology, Regina Elena Institute, Rome, Italy). HaCat cells were kindly provided by Istituto Zooprofilattico Sperimentale della Lombardia e dell’Emilia Romagna, Brescia, Italy. Cell lines were seeded using concentrations of 40,000 cells/mL and 25,000 cells/mL, respectively. Colo-38 cells were maintained in RPMI 1640, supplemented with 10% fetal bovine serum (FBS), penicillin (100 Units mL^−1), and streptomycin (100 µg mL^−1). HaCat cells were maintained in DMEM, supplemented with 10% fetal bovine serum (FBS), penicillin (100 Units mL^−1), streptomycin (100 µg mL^−1) and glutamine (2 mM); the incubation was performed at 37 °C in a 5% CO2 atmosphere. Tested compounds were dissolved in MeOH/DMSO (1:1) to obtain 50 mM stock solutions and diluted before cell treatment in MeOH 100%. The tested compounds were added at serial dilutions to the cell cultures (from 0.1 to 100 µM) and incubated for 24 h further. Cells were then harvested, suspended in physiological solution, and counted with a Z2 Coulter Counter (Coulter Electronics, Hialeah, FL, USA). The cell number/mL and the IC50 values were determined when untreated cells were in the log phase of cell growth. Cells treated with vehicles and untreated cells were placed in each plate.
# HaCat keratinocytes = experiment: Cell growth inhibition assay, HaCat; assay type: cell-based, human; conditions: Homo sapiens, HaCaT; 24 h incubation, cell count
# Description: as §1, §2
Compound,ε (molar extinction coefficient) [1],λmax [1] [nm],SPF [2],UVA/UVB [2],UVAPF [2],λc [2] [nm],melting point [°C],FRAP [3] [µmolTE/g],SPF [4],UVA/UVB [4],UVAPF0 [4],λc [4] [nm],DPPH (% Inhibition) [5] [%],IC50 (melanoma Colo-38 cells) [µM],IC50 (HaCat keratinocytes) [µM]
"COc1ccc(/C=N/NC(=O)c2nc3ccccc3s2)cc1 [BZTidr3, (E)-N′-(4-methoxybenzylidene)benzo[d]thiazole-2-carbohydrazide]",29641.85,333.1,1.31,1.11,1.41,387,208 to 215,273.99 ± 10.12,1.31,1.11,1.44,387,24.25 ± 1.38,–,–
"O=C(N/N=C/c1ccc(O)c(O)c1)c1nc2ccccc2s1 [BZTidr4, (E)-N′-(3,4-dihydroxybenzylidene)benzo[d]thiazole-2-carbohydrazide]",22183.99,346.2,1.63,1.05,1.64,389,> 280,–,1.53,1.05,1.65,389,>90.00,92.9 ± 1.62,> 100
